{"source": "the OPERA property sets (Mansouri et al. 2018)"}
{"smiles": "O=C(Nc1ccccc1Cl)c1ccccc1O", "values": [{"measurement": "logP", "value": 4.35}]}
{"smiles": "O=C(Nc1ccccc1[N+](=O)[O-])c1ccccc1O", "values": [{"measurement": "logP", "value": 2.87}]}
{"smiles": "Cc1cc([N+](=O)[O-])ccc1NC(=O)c1cc(Cl)cc(Cl)c1O", "values": [{"measurement": "logP", "value": 4.51}]}
{"smiles": "O=C(Nc1ccccc1)c1cc([N+](=O)[O-])ccc1O", "values": [{"measurement": "logP", "value": 3.66}]}
{"smiles": "O=C(Nc1ccc(Br)cc1)c1ccccc1O", "values": [{"measurement": "logP", "value": 4.51}]}
{"smiles": "O=C(Nc1ccc(Cl)cc1[N+](=O)[O-])c1ccccc1O", "values": [{"measurement": "logP", "value": 4.09}]}
{"smiles": "Cc1cc(Cl)ccc1NC(=O)c1cc(F)ccc1O", "values": [{"measurement": "logP", "value": 4.89}]}
{"smiles": "O=C(Nc1ccc(F)cc1F)c1cc(Br)cc(Br)c1O", "values": [{"measurement": "logP", "value": 4.99}]}
{"smiles": "O=C(Nc1ccc(Cl)cc1[N+](=O)[O-])c1cc(Br)cc(Br)c1O", "values": [{"measurement": "logP", "value": 5.05}]}
{"smiles": "Cc1ccccc1NC(=O)c1cc(Cl)ccc1O", "values": [{"measurement": "logP", "value": 4.21}]}
{"smiles": "O=C(Nc1ccc(F)cc1)c1cc(Cl)cc(Cl)c1O", "values": [{"measurement": "logP", "value": 4.76}]}
{"smiles": "O=C(Nc1ccc(F)cc1F)c1cc(Cl)cc(Cl)c1O", "values": [{"measurement": "logP", "value": 4.55}]}
{"smiles": "O=C(Nc1ccc(Cl)cc1)c1cc(Br)ccc1O", "values": [{"measurement": "logP", "value": 5.02}]}
{"smiles": "O=C(Nc1ccc(Cl)cc1)c1ccccc1O", "values": [{"measurement": "logP", "value": 4.5}]}
{"smiles": "O=C(Nc1ccccc1)c1cc(Cl)ccc1O", "values": [{"measurement": "logP", "value": 4.05}]}
{"smiles": "O=C(Nc1ccc(Cl)cc1Cl)c1ccccc1O", "values": [{"measurement": "logP", "value": 5.49}]}
{"smiles": "O=C(Nc1ccc(Cl)cc1[N+](=O)[O-])c1cc(Cl)cc(Cl)c1O", "values": [{"measurement": "logP", "value": 5.08}]}
{"smiles": "O=C(Nc1ccccc1)c1cc(Cl)cc(Cl)c1O", "values": [{"measurement": "logP", "value": 4.01}]}
{"smiles": "Cc1cc(Br)ccc1NC(=O)c1cc(F)ccc1O", "values": [{"measurement": "logP", "value": 5.15}]}
{"smiles": "O=C(Nc1ccc(Cl)cc1)c1cc(Cl)cc(Cl)c1O", "values": [{"measurement": "logP", "value": 5.15}]}
{"smiles": "Cc1cc(Cl)ccc1NC(=O)c1ccccc1O", "values": [{"measurement": "logP", "value": 5.18}]}
